{"source": "patent US12479821B2", "about": "(MBD CO., LTD., priority 2019, dated 2025)", "data": [{"biological_target": "T1, CYP4A (Homo sapiens, UniProt Q02928)", "T1 construct": "host or cells: bactosome, i.e. bacterial membrane preparation (own knowledge of the term)", "T1 sequence (Q02928 5-519)": "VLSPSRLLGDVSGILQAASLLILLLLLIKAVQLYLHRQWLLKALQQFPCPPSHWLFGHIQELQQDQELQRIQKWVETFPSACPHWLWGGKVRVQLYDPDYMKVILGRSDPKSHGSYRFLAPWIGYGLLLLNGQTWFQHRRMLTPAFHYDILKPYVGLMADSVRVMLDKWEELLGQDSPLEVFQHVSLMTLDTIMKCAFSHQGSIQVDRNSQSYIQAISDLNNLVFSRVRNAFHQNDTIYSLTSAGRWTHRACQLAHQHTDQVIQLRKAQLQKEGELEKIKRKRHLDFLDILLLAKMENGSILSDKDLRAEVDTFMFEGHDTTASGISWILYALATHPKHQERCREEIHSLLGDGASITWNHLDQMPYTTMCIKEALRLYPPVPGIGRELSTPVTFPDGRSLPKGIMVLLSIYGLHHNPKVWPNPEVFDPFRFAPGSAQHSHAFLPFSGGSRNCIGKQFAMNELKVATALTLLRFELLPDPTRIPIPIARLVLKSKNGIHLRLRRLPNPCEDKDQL", "experiment": "CYP4A enzyme assay (Luciferin-ME luminescence, CYP4A bactosome)", "type": "biochemical", "settings": "compound concentration 5 μM; 25%-50%; read-out: % Inhibition 25%-50%", "procedure,_shortened": "(§1)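 CYP4A bactosome preincubated 15 min at room temperature with compound (5 μM) in 100 mM KPO4, 0.1% BSA, 1 mM DTT. Luciferin-ME (5 mM) plus NADPH regeneration system added, 30 min at room temperature, then detection reagent for 15 min. Inhibition derived from luminescence versus controls.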", "units": {"inhibition at 5 µM": "%"}, "values": [{"smiles": "O=C(C1CCCN(S(=O)(=O)c2cccc(F)c2)C1)N1CCN(c2cc(C(F)(F)F)nc3ccccc23)CC1", "note": "(stereo not drawn) [Formula 72, (1-(3-fluorophenylsulfonyl)piperidin-3-yl) (4-(2-(trifluoromethyl)quinolin-4-yl)piperazin-1-yl) methanone]", "inhibition at 5 µM": "25 to 50"}, {"smiles": "Cc1ccc(S(=O)(=O)N2CCCC(C(=O)N3CCN(c4cc(C)nc5ccccc45)CC3)C2)cc1", "note": "(stereo not drawn) [Formula 20, (4-(2-methylquinolin-4-yl)piperazin-1-yl) (1-tosylpiperidin-3-yl) methanone]", "inhibition at 5 µM": "25 to 50"}, {"smiles": "Cc1cc(N2CCN(C(=O)C3CCCN(S(=O)(=O)c4ccc(Oc5ccccc5)cc4)C3)CC2)c2ccccc2n1", "note": "(stereo not drawn) [Formula 34, (4-(2-methylquinolin-4-yl)piperazin-1-yl) (1-(4-phenoxyphenylsulfonyl)piperidin-3-yl) methanone]", "inhibition at 5 µM": "25 to 50"}, {"smiles": "Cc1cc(N2CCN(C(=O)C3CCCN(S(=O)(=O)c4ccccc4)C3)CC2)c2ccccc2n1", "note": "(stereo not drawn) [Formula 19, (4-(2-methylquinolin-4-yl)piperazin-1-yl) (1-(phenylsulfonyl)piperidin-3-yl) methanone]", "inhibition at 5 µM": "25 to 50"}]}, {"biological_target": "T1, CYP4A", "experiment": "CYP4A enzyme assay (Luciferin-ME luminescence, CYP4A bactosome)", "type": "biochemical", "settings": "compound concentration 5 μM; 75% or more; read-out: % Inhibition 75% or more", "procedure,_shortened": "as §1", "units": {"inhibition at 5 µM": "%"}, "values": [{"smiles": "O=C(C1CCCN(S(=O)(=O)c2ccc(-c3ccncc3)cc2)C1)N1CCN(c2ccnc3cc(F)ccc23)CC1", "note": "(stereo not drawn) [Formula 106, (4-(7-fluoroquinolin-4-yl)piperazin-1-yl) (1-(4-(pyridin-4-yl)phenylsulfonyl)piperidin-3-yl) methanone]", "inhibition at 5 µM": 0}, {"smiles": "CC(=O)Nc1cccc(S(=O)(=O)N2CCC[C@@H](C(=O)N3CCN(c4ccnc5cc(F)ccc45)CC3)C2)c1", "note": "[Formula 59, (R)—N-(3-(3-(1-(7-fluoroquinolin-4-yl)piperazine-4-carbonyl)piperidin-1-ylsulfonyl)phenyl) acetamide]", "inhibition at 5 µM": "≥ 75"}, {"smiles": "Cc1ncc(-c2ccc(S(=O)(=O)N3CCCC(C(=O)N4CCN(c5ccnc6ccccc56)CC4)C3)cc2)cn1", "note": "(stereo not drawn) [Formula 115, (1-(4-(2-methylpyrimidin-5-yl)phenylsulfonyl)piperidin-3-yl) (4-(quinolin-4-yl)piperazin-1-yl) methanone]", "inhibition at 5 µM": "≥ 75"}, {"smiles": "CCN(CC)c1ccc(S(=O)(=O)N2CCCC(C(=O)N3CCN(c4ccnc5cc(F)ccc45)CC3)C2)cc1", "note": "(stereo not drawn) [Formula 52, (1-(4-(diethylamino)phenylsulfonyl)piperidin-3-yl) (4-(7-fluoroquinolin-4-yl)piperazin-1-yl) methanone]", "inhibition at 5 µM": "≥ 75"}, {"smiles": "CC(=O)Nc1ccc(S(=O)(=O)N2CCCC(C(=O)N3CCN(c4ccnc5ccccc45)CC3)C2)cc1", "note": "(stereo not drawn) [Formula 78, N-(4-((3-(4-(quinolin-4-yl)piperazine-1-carbonyl)piperidin-1-yl)sulfonyl)phenyl) acetamide]", "inhibition at 5 µM": "≥ 75"}, {"smiles": "O=C(C1CCCN(S(=O)(=O)c2cccc(O)c2)C1)N1CCN(c2ccnc3cc(F)ccc23)CC1", "note": "(stereo not drawn) [Formula 94, (4-(7-fluoroquinolin-4-yl)piperazin-1-yl) (1-(3-hydroxyphenylsulfonyl)piperidin-3-yl) methanone]", "inhibition at 5 µM": "≥ 75"}, {"smiles": "O=C(C1CCCN(S(=O)(=O)c2ccc(-c3cncnc3)cc2)C1)N1CCN(c2ccnc3cc(F)ccc23)CC1", "note": "(stereo not drawn) [Formula 111, (4-(7-fluoroquinolin-4-yl)piperazin-1-yl) (1-(4-(pyrimidin-5-yl)phenylsulfonyl)piperidin-3-yl) methanone]", "inhibition at 5 µM": "≥ 75"}, {"smiles": "CS(=O)(=O)c1ccc(S(=O)(=O)N2CCCC(C(=O)N3CCN(c4ccnc5cc(Cl)ccc45)CC3)C2)cc1", "note": "(stereo not drawn) [Formula 11, (4-(7-chloroquinolin-4-yl)piperazin-1-yl) (1-(4-(methylsulfonyl)phenylsulfonyl)piperidin-3-yl) methanone]", "inhibition at 5 µM": "≥ 75"}, {"smiles": "O=C([C@@H]1CCCN(S(=O)(=O)c2ccc(-c3ccncc3)cc2)C1)N1CCN(c2ccnc3cc(F)ccc23)CC1", "note": "[Formula 107, (R)-(4-(7-fluoroquinolin-4-yl)piperazin-1-yl) (1-(4-(pyridin-4-yl)phenylsulfonyl)piperidin-3-yl) methanone]", "inhibition at 5 µM": "≥ 75"}, {"smiles": "O=C(C1CCCN(S(=O)(=O)c2ccc(O)cc2)C1)N1CCN(c2ccnc3cc(F)ccc23)CC1", "note": "(stereo not drawn) [Formula 43, (4-(7-fluoroquinolin-4-yl)piperazin-1-yl) (1-((4-hydroxyphenyl)sulfonyl)piperidin-3-yl) methanone]", "inhibition at 5 µM": "≥ 75"}, {"smiles": "Cc1cc(N2CCN(C(=O)C3CCCN(S(=O)(=O)c4ccc(-c5ccccc5)cc4)C3)CC2)c2ccccc2n1", "note": "(stereo not drawn) [Formula 38, (4-(2-methylquinolin-4-yl)piperazin-1-yl) (1-(4-phenylbenzenesulfonyl)piperidin-3-yl) methanone]", "inhibition at 5 µM": "≥ 75"}, {"smiles": "O=C(C1CCCN(S(=O)(=O)c2cccc(-c3ccncc3)c2)C1)N1CCN(c2ccnc3cc(F)ccc23)CC1", "note": "(stereo not drawn) [Formula 109, (4-(7-fluoroquinolin-4-yl)piperazin-1-yl) (1-(3-(pyridin-4-yl)phenylsulfonyl)piperidin-3-yl) methanone]", "inhibition at 5 µM": "≥ 75"}, {"smiles": "CC(=O)Nc1ccc(S(=O)(=O)N2CCCC(C(=O)N3CCN(c4ccnc5cc(Cl)ccc45)CC3)C2)cc1", "note": "(stereo not drawn) [Formula 116, N-(4-(3-(4-(7-chloroquinolin-4-yl)piperazine-1-carbonyl)piperidin-1-ylsulfonyl)phenyl) acetamide]", "inhibition at 5 µM": "≥ 75"}, {"smiles": "O=C([C@@H]1CCCN(S(=O)(=O)c2ccc(Br)cc2)C1)N1CCN(c2ccnc3cc(F)ccc23)CC1", "note": "[Formula 57, (R)-(1-(4-bromophenylsulfonyl)piperidin-3-yl) (4-(7-fluoroquinolin-4-yl)piperazin-1-yl) methanone]", "inhibition at 5 µM": 0}, {"smiles": "Cc1cc(N2CCN(C(=O)C3CCCN(S(=O)(=O)c4ccc(N(C)C)cc4)C3)CC2)c2ccccc2n1", "note": "(stereo not drawn) [Formula 31, (1-(4-(dimethylamino)phenylsulfonyl)piperidin-3-yl) (4-(2-methylquinolin-4-yl)piperazin-1-yl) methanone]", "inhibition at 5 µM": "≥ 75"}, {"smiles": "Cc1cc(N2CCN(C(=O)C3CCCN(S(=O)(=O)c4ccc(-c5cnc(C)nc5)cc4)C3)CC2)c2ccccc2n1", "note": "(stereo not drawn) [Formula 104, (1-((4-(2-methylpyrimidin-5-yl)phenyl)sulfonyl)piperidin-3-yl) (4-(2-methylquinolin-4-yl)piperazin-1-yl) methanone]", "inhibition at 5 µM": 0}, {"smiles": "Cc1cc(N2CCN(C(=O)C3CCCN(S(=O)(=O)c4ccc(-c5ccncc5)cc4)C3)CC2)c2ccccc2n1", "note": "(stereo not drawn) [Formula 102, (4-(2-methylquinolin-4-yl)piperazin-1-yl) (1-((4-(pyridin-4-yl)phenyl)sulfonyl)piperidin-3-yl)methanone]", "inhibition at 5 µM": 0}, {"smiles": "O=C(C1CCCN(S(=O)(=O)c2cccc([N+](=O)[O-])c2)C1)N1CCN(c2ccnc3cc(Cl)ccc23)CC1", "note": "(stereo not drawn) [Formula 6, (4-(7-chloroquinolin-4-yl)piperazin-1-yl) (1-((3-nitrophenyl)sulfonyl)piperidin-3-yl) methanone]", "inhibition at 5 µM": "≥ 75"}]}, {"biological_target": "T1, CYP4A", "experiment": "CYP4A enzyme assay (Luciferin-ME luminescence, CYP4A bactosome)", "type": "biochemical", "settings": "compound concentration 5 μM; '50%-75%'; read-out: % Inhibition 50%-75%", "procedure,_shortened": "as §1", "units": {"inhibition at 5 µM": "%"}, "values": [{"smiles": "Nc1ccc(S(=O)(=O)N2CCCC(C(=O)N3CCN(c4ccnc5ccccc45)CC3)C2)cc1", "note": "(stereo not drawn) [Formula 97, (1-(4-aminophenylsulfonyl)piperidin-3-yl) (4-(quinolin-4-yl)piperazin-1-yl) methanone]", "inhibition at 5 µM": 0}, {"smiles": "O=C(C1CCCN(S(=O)(=O)c2ccccc2)C1)N1CCN(c2ccnc3cc(F)ccc23)CC1", "note": "(stereo not drawn) [Formula 41, (4-(7-fluoroquinolin-4-yl)piperazin-1-yl) (1-(phenylsulfonyl)piperidin-3-yl) methanone]", "inhibition at 5 µM": "50 to 75"}, {"smiles": "O=C(C1CCCN(S(=O)(=O)c2ccc(-c3ccccc3)cc2)C1)N1CCN(c2ccnc3cc(Cl)ccc23)CC1", "note": "(stereo not drawn) [Formula 13, (4-(7-chloroquinolin-4-yl)piperazin-1-yl) (1-(4-phenylbenzenesulfonyl)piperidin-3-yl) methanone]", "inhibition at 5 µM": "50 to 75"}, {"smiles": "COc1ccc(S(=O)(=O)N2CCCC(C(=O)N3CCN(c4cc(C)nc5ccccc45)CC3)C2)cc1", "note": "(stereo not drawn) [Formula 29, (1-(4-methoxyphenylsulfonyl)piperidin-3-yl) (4-(2-methylquinolin-4-yl)piperazin-1-yl)methanone]", "inhibition at 5 µM": "50 to 75"}, {"smiles": "CC(=O)Nc1ccc(S(=O)(=O)N2CCC[C@H](C(=O)N3CCN(c4cc(C)nc5ccccc45)CC3)C2)cc1", "note": "[Formula 17, (S)—N-(4-((3-(4-(2-methylquinolin-4-yl)piperazine-1-carbonyl)piperidin-1-yl)sulfonyl)phenyl) acetamide]", "inhibition at 5 µM": "50 to 75"}, {"smiles": "COc1ccc2c(N3CCN(C(=O)C4CCCN(S(=O)(=O)c5ccc(N(C)C)cc5)C4)CC3)ccnc2c1", "note": "(stereo not drawn) [Formula 90, (1-(4-(dimethylamino)phenylsulfonyl)piperidin-3-yl) (4-(7-methoxyquinolin-4-yl)piperazin-1-yl) methanone]", "inhibition at 5 µM": "50 to 75"}, {"smiles": "Cc1cc(N2CCN(C(=O)C3CCCN(S(=O)(=O)c4ccc(S(C)(=O)=O)cc4)C3)CC2)c2ccccc2n1", "note": "(stereo not drawn) [Formula 36, (4-(2-methylquinolin-4-yl)piperazin-1-yl) (1-(4-(methylsulfonyl)phenylsulfonyl)piperidin-3-yl) methanone]", "inhibition at 5 µM": "50 to 75"}, {"smiles": "COC(=O)c1ccc(S(=O)(=O)N2CCCC(C(=O)N3CCN(c4ccnc5cc(Cl)ccc45)CC3)C2)cc1", "note": "(stereo not drawn) [Formula 12, methyl 4-((3-(1-(7-chloroquinolin-4-yl)piperazine-1-carbonyl)piperidin-1-yl)sulfonyl)benzoate]", "inhibition at 5 µM": "50 to 75"}]}]}
